{
  "source": "patent US4048328A",
  "about": "“Alkyl derivatives of 4,5-dehydro PGF1” (American Home Products Corporation, priority 1976, dated 1977)",
  "key": {"mated hamsters": {"tested_on": "mated hamsters", "assay": "abortifacient test in mated hamsters (Labhsetwar)", "format": "in vivo, hamster", "settings": "Mesocricetus auratus, sc", "method": "Furthermore, when the compounds of this invention are tested by the method of A. P. Labhsetwar, Nature 230, 528 (1971) whereby the compound is given subcutaneously on a daily basis to mated hamsters on days 4, 5 and 6 of pregnancy, thereafter the animals being sacrificed on day 7 of pregnancy and the number of abortions counted, the compounds are shown to have abortifacient properties."}, "[1]": {"tested_on": "secretion of gastric acid", "assay": "inhibition of gastric acid secretion in rats (Shay et al.)", "format": "in vivo", "settings": "po; orally, rat", "method": "For example, when trans,cis-7-[2-(3-hydroxy-4,4-dimethyl-1-octenyl)-5-oxocyclopentyl]-5-heptanoic acid (Example 68) is given orally to the rat according to the aforementioned method, an ED50 of about 1.0 mg/kg is obtained for the compound."}, "horse": {"tested_on": "horse", "assay": "synchronization of estrus and regulation of ovulation in the horse", "format": "in vivo", "settings": "given on second and third day before expected estrus; rectal palpation", "description": "It is often desirable to synchronize estrus in domestic animals, for example, horses, cattle, sheep, swine or dogs, in order to be able to perform artificial insemination or mating with a male of the desired genetic quality under optimum conditions. In the past, this has been done by administering to the animals an ovulation-inhibiting agent, withdrawing administration of said agent shortly before the date chosen for mating or artificial insemination, and relying either upon the natural production of LH and FSH to induce ovulation and to produce estrus or by administering gonadotrophins. However, this procedure was not entirely satisfactory because ovulation at a predetermined time occured only in a certain proportion of the animals when gonadotrophins were not used. On the other hand, the high cost of gonadotrophins and side effects encountered in their administration needs this method impractical. It is now possible to obtain substantially complete synchronization of ovulation and of estrus, by treating the animals in a given group with the compound of formula 1 before the predetermined period of time for mating or artificial insemination, so as to obtain ovulation and estrus within that time interval. The delay in the onset of ovulation and estrus following administration of the compound of this invention varies with the species of animal. […]"}, "[2]": {"tested_on": "histamine-induced bronchoconstriction", "assay": "histamine-induced bronchoconstriction in the anesthetized guinea pig (Greenberg and Beaulieu)", "format": "in vivo", "method": "(§1) Maximal effect was seen within 3 minutes after 10 μg/kg and returned to the control level within 50 minutes. Hypotension of short duration (1 - 2 minutes) occurred following this mode of administration. […] Maximal effect was seen within 3 minutes after 0.1 μg/kg and returned to the control level within 70 minutes.\nPercentage inhibition of histamine-induced bronchoconstriction in the anesthetized guinea pig after intravenous administration of trans-7-[2-(3-hydroxy-3-methyl-1-octenyl)-5-oxocyclopentyl]heptanoic acid (Isomer B'). Each value is the mean of 8 - 12 experiments.\nPercentage inhibition of histamine-induced bronchoconstriction in the anesthetized guinea pig after aerosol administration of trans-7-[2-(3-hydroxy-3-methyl-1-oxtenyl)-5-oxocyclopentyl]heptanoic acid (Isomer B'). Each value is the mean of 8 - 12 experiments."}, "[3]": {"tested_on": "guinea pig tracheal strip", "assay": "relaxation of carbachol-induced contractions of isolated guinea pig tracheal strips", "settings": "for RELAXATION of tracheal strip: carbachol-contracted, mean of 12 strips", "description": "The relaxation of the guinea pig tracheal strip by trans-7-[2-(3-hydroxy-3-methyl-1-octenyl)-5-oxocyclopentyl]heptanoic acid (Isomer B'). Each value is the mean of the responses of 12 strips."}, "blood pressure": {"tested_on": "blood pressure", "assay": "blood pressure after administration in the anesthetized guinea pig", "format": "in vivo", "settings": "after aerosol administration", "method": "as §1"}, "gastric secretion": {"tested_on": "gastric secretion", "settings": "in vivo; cited from earlier work"}, "pregnancy [4]": {"tested_on": "pregnancy", "settings": "human; cited from earlier work"}, "pregnancy [5]": {"tested_on": "pregnancy", "settings": "rhesus monkey; cited from earlier work"}, "[6]": {"settings": "basic and acidic conditions; cited from earlier work"}, "[7]": {"settings": "168 h, subcutaneous, days 4, 5 and 6 of pregnancy, sacrificed day 7, read-out: dose giving complete abortion in all animals"}},
  "note": "Like-named read-outs stand apart in the source and are kept apart here.",
  "data": [
    {"smiles": "CCCCCC(C)(O)/C=C/[C@H]1CCC(=O)[C@@H]1C/C=C\\CCCC(=O)O", "note": "(relative stereo) [trans, cis-7-[2-(3-Hydroxy-3-methyl-1-octenyl)-5-oxocyclopentyl]-5-heptenoic Acid]", "values": [
      {"measurement": "ED100", "setting": "mated hamsters; [7]", "value": 2.5, "unit": "mg/kg/day"}
    ]},
    {"smiles": "CCCCCC(C)(O)/C=C/[C@H]1CCC(=O)[C@@H]1CC/C=C\\CCC(=O)O", "note": "(relative stereo) [trans, cis-7-[2-(3-hydroxy-3-methyl-1-octenyl)-5-oxocyclopentyl]-4-heptenoic acid]", "values": [
      {"measurement": "ED100", "setting": "mated hamsters; [7]", "value": 1, "unit": "mg/kg/day"}
    ]},
    {"smiles": "CCCCC(C)(C)C(O)/C=C/[C@H]1CCC(=O)[C@@H]1C/C=C\\CCCC(=O)O", "note": "(relative stereo) [trans, cis-7-[2-(3-hydroxy-4,4-dimethyl-1-octenyl)-5-oxocyclopentyl]-5-heptenoicacid]", "values": [
      {"measurement": "ED50", "setting": "[1]", "value": "~1", "unit": "mg/kg"}
    ]},
    {"smiles": "CCCCCC(C)(O)/C=C/[C@H]1CC[C@H](O)[C@@H]1C/C=C\\CCCC(=O)O", "note": "(relative stereo) [trans, cis-7-[2α-hydroxy-5-(3-hydroxy-3-methyl-1-octenyl)cyclopentyl]-5-heptenoic acid]", "values": [
      {"measurement": "ovulation after estrus (majority of animals)", "setting": "horse", "value": "from the fourth to the sixth day"}
    ]},
    {"smiles": "CCCCCC(C)(O)/C=C/[C@H]1CCC(O)[C@@H]1C/C=C\\CCCC(=O)O", "note": "(relative stereo) [trans, cis-7[2-hydroxy-5-(3-hydroxy-3-methyl-1-octenyl)cyclopentyl]-5-heptenoic acid]", "values": [
      {"measurement": "ED100", "setting": "mated hamsters; [7]", "value": 0.5, "unit": "mg/kg/day"}
    ]},
    {"smiles": "CCCCCC(C)(O)/C=C/[C@H]1CCC(=O)[C@@H]1CCCCCCC(=O)O", "note": "(relative stereo) [trans-7-[2-(3-hydroxy-3-methyl-1-octenyl)-5-oxocyclopentyl]-heptanoic acid]", "values": [
      {"measurement": "protection against histamine-induced bronchospasm", "setting": "[2]; anesthetized guinea pig", "value": "significant protection"}
    ]},
    {"smiles": "CCCCCC(C)(O)/C=C/[C@H]1CCC(=O)[C@@H]1CCCCCCC(=O)O", "note": "(single isomer, unassigned) [Isomer B', trans-7-[2-(3-hydroxy-3-methyl-1-octenyl)-5-oxocyclopentyl]-heptanoic acid]", "values": [
      {"measurement": "RELAXATION of tracheal strip", "setting": "[3]; 1.0 μg/ml", "value": "0.2 ± 0.2", "unit": "g"},
      {"measurement": "RELAXATION of tracheal strip", "setting": "[3]; 3.0 μg/ml", "value": "0.39 ± 0.04", "unit": "g"},
      {"measurement": "RELAXATION of tracheal strip", "setting": "[3]; 10 μg/ml", "value": "0.79 ± 0.1", "unit": "g"},
      {"measurement": "RELAXATION of tracheal strip", "setting": "[3]; 30 μg/ml", "value": "1.29 ± 0.1", "unit": "g"},
      {"measurement": "relaxation of the tracheal strip, dose relation", "setting": "[3]; cumulative concentrations", "value": "linear dose related relaxation"},
      {"measurement": "changes in the blood pressure", "setting": "blood pressure", "value": "no notable changes in the blood pressure"},
      {"measurement": "inhibition at 1e-05 mg/kg", "setting": "[2]; Cavia porcellus, intravenous, 0.01 μg/kg, mean of 8 - 12 experiments", "value": "14.8 ± 2", "unit": "%"},
      {"measurement": "inhibition at 0.0001 mg/kg", "setting": "[2]; Cavia porcellus, intravenous, 0.1 μg/kg, mean of 8 - 12 experiments", "value": "46.4 ± 5.5", "unit": "%"},
      {"measurement": "inhibition at 0.001 mg/kg", "setting": "[2]; Cavia porcellus, intravenous, 1.0 μg/kg, mean of 8 - 12 experiments", "value": "66 ± 5.4", "unit": "%"},
      {"measurement": "inhibition at 0.01 mg/kg", "setting": "[2]; Cavia porcellus, intravenous, 10.0 μg/kg, mean of 8 - 12 experiments", "value": "81.9 ± 5.2", "unit": "%"},
      {"measurement": "inhibition of histamine-induced bronchoconstriction, dose relation", "setting": "[2]; aerosol", "value": "linear dose related inhibition"},
      {"measurement": "times more potent than prostaglandin E2 or 11-deoxy-prostaglandin E1", "setting": "[2]; aerosol", "value": 78, "unit": "times"},
      {"measurement": "time of maximal effect", "setting": "[2]; aerosol, after 0.1 μg/kg", "value": "≤ 3", "unit": "min"},
      {"measurement": "time of return to the control level", "setting": "[2]; aerosol, after 0.1 μg/kg", "value": "≤ 70", "unit": "min"},
      {"measurement": "% INHIBITION of histamine-induced bronchoconstriction", "setting": "[2]; aerosol, total dose 10^-1 μg, mean of 8 - 12 experiments", "value": "78.1 ± 4.2", "unit": "%"},
      {"measurement": "% INHIBITION of histamine-induced bronchoconstriction", "setting": "[2]; aerosol, total dose 10^-2 μg, mean of 8 - 12 experiments", "value": "66.8 ± 4.7", "unit": "%"},
      {"measurement": "% INHIBITION of histamine-induced bronchoconstriction", "setting": "[2]; aerosol, total dose 10^-3 μg, mean of 8 - 12 experiments", "value": "49.3 ± 5.0", "unit": "%"},
      {"measurement": "% INHIBITION of histamine-induced bronchoconstriction", "setting": "[2]; aerosol, total dose 10^-4 μg, mean of 8 - 12 experiments", "value": "38.6 ± 5.9", "unit": "%"},
      {"measurement": "% INHIBITION of histamine-induced bronchoconstriction", "setting": "[2]; aerosol, total dose 10^-5 μg, mean of 8 - 12 experiments", "value": "20.9 ± 5.1", "unit": "%"},
      {"measurement": "inhibition of histamine-induced bronchoconstriction, dose relation", "setting": "[2]; intravenous", "value": "linear dose related inhibitions"},
      {"measurement": "times more potent than prostaglandin E2 or 11-deoxy-prostaglandin E1", "setting": "[2]; intravenous", "value": 32, "unit": "times"},
      {"measurement": "time of maximal effect", "setting": "[2]; intravenous, after 10 μg/kg", "value": "≤ 3", "unit": "min"},
      {"measurement": "time of return to the control level", "setting": "[2]; intravenous, after 10 μg/kg", "value": "≤ 50", "unit": "min"}
    ]},
    {"smiles": "CCCCCC(C)(O)CCC1CCC(=O)C1CCCCCCC(=O)O", "note": "(centres unmarked) [2-(3-hydroxy-3-methyl-octyl)-5-oxocyclopentaneheptanoic acid, reference compound]", "values": [
      {"measurement": "ED100", "setting": "mated hamsters; comparison with saturated 15-methyl analog, above test, read-out: dose below which complete abortion is not caused", "value": "≥ 30", "unit": "mg/kg/day"}
    ]},
    {"smiles": "CCCCC[C@@](C)(O)/C=C/[C@H]1[C@H](O)CC(=O)[C@@H]1C/C=C\\CCCC(=O)O", "note": "[15(R)-methyl]", "values": [
      {"measurement": "effect on gastric secretion", "setting": "gastric secretion", "value": "inhibit gastric secretion"}
    ]},
    {"smiles": "CCCCC[C@](C)(O)/C=C/[C@H]1[C@H](O)CC(=O)[C@@H]1C/C=C\\CCCC(=O)O", "note": "[15(S)-methyl PGE2]", "values": [
      {"measurement": "effect on gastric secretion", "setting": "gastric secretion", "value": "inhibit gastric secretion"}
    ]},
    {"smiles": "CCCCC[C@](C)(O)/C=C/[C@@H]1[C@@H](C/C=C\\CCCC(=O)O)[C@@H](O)C[C@H]1O", "note": "[15-Methyl PGF2α]", "values": [
      {"measurement": "effect on pregnancy", "setting": "pregnancy [4]", "value": "interrupt pregnancy"},
      {"measurement": "effect on pregnancy", "setting": "pregnancy [5]", "value": "interrupt pregnancy"}
    ]},
    {"smiles": "CCCCCC(C)(O)/C=C/[C@H]1[C@H](O)CC(=O)[C@@H]1C/C=C\\CCCC(=O)OC", "note": "(some centres unmarked) [15-methyl PGE2 methyl esters]", "values": [
      {"measurement": "effect on pregnancy", "setting": "pregnancy [4]", "value": "interrupt pregnancy"},
      {"measurement": "effect on pregnancy", "setting": "pregnancy [5]", "value": "interrupt pregnancy"}
    ]},
    {"smiles": "CCCCC(C)(C)[C@H](O)/C=C/[C@H]1[C@H](O)CC(=O)[C@@H]1C/C=C\\CCCC(=O)OC", "note": "[16,16-dimethyl PGE2 methyl ester]", "values": [
      {"measurement": "effect on gastric secretion", "setting": "gastric secretion", "value": "effective in inhibiting gastric acid secretion"}
    ]},
    {"smiles": "CCCCC[C@H](O)/C=C/[C@H]1[C@H](O)CC(=O)[C@@H]1C/C=C\\CCCC(=O)O", "note": "[PGE2]", "values": [
      {"measurement": "dehydration of the 11-hydroxy group", "setting": "[6]", "value": "participates readily in dehydration reactions"}
    ]}
  ]
}
